Measurements published in US20050101595A1, “N-containing cycloalkyl-substituted amino-thiazole derivatives and pharmaceutical compositions for inhibiting cell proliferation and methods for their use” (PFIZER INC., priority 2003, published 2005).

Key:
CDK2/Cyclin A = CDK2/Cyclin A (Homo sapiens, UniProt P24941); test: Inhibition of CDK2/Cyclin A Retinoblastoma Kinase Activity; assay type: biochemical; details: 0.03 μM compound, Table 2
Procedure, shortened: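 Human CDK2, baculovirus/insect-cell expressed, complexed with proteolyzed cyclin A (10 nM or 19 nM CDK2) phosphorylates an Rb fragment with 25 μM [32P/33P]ATP at pH 7.4, 30° C, for 60 or 75 minutes under initial-rate conditions. Filter-captured radioactivity is read by phosphorimager; apparent Ki from competitive-inhibition fits.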

[1] = molecular target: human CDK4 and genetically truncated (1-264) cyclin D3 (Homo sapiens, UniProt P11802); test: Inhibition of CDK4/Cyclin D Retinoblastoma Kinase Activity; assay type: biochemical; details: 0.03 μM compound, Table 2
Chain of human CDK4 and genetically truncated (1-264) cyclin D3 (P11802 whole entry, the tested form may be a part): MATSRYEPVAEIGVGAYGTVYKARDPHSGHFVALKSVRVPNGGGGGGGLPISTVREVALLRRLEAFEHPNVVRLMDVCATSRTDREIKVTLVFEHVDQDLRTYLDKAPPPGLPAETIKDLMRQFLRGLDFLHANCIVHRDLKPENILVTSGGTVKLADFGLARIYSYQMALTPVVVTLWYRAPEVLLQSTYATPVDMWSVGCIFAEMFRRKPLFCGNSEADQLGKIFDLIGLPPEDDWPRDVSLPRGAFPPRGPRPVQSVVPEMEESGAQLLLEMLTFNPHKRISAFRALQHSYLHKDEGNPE
Chain of human CDK4 and genetically truncated (1-264) cyclin D3 (P30281 1-264 partner): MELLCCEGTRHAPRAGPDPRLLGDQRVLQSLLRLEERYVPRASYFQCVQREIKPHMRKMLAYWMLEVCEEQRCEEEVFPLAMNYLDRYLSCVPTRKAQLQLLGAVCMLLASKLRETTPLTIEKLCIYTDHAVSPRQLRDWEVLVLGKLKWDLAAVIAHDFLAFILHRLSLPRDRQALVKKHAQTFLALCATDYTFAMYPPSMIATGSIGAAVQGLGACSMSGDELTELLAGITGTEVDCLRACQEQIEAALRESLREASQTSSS
Procedure, shortened: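 Read-out: 32P/33P incorporation into Rb fragment (386-928) captured on nitrocellulose, phosphorimager. Enzyme 5 nM CDK4/cyclin D3(1-264) from insect cells; ATP 25 μM, pH 7.4, 30 °C, 20 min (60 min for tight binders). Ki from competitive fits.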

HCT-116 cell line = test: Inhibition of cell growth, tetrazolium salt (MTT) assay; assay type: cell-based; details: 0.25 μM compound, HCT-116, Table 2
Procedure, shortened: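 Growth inhibition by MTT reduction at 540 nm (0.2 mg/mL, 4 h at 37° C, formazan dissolved in DMSO), normalized to cells given only 0.5% v/v DMSO. HCT-116 cultures in McCoy's 5A were dosed 4 h post-plating and kept three to five days at 37° C, 5% CO2.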

Row | SMILES | CDK2 % Inhibition At 0.03 μM (CDK2/Cyclin A) [%] | CDK4 % Inhibition at 0.03 μM [1] [%] | CDK2 % Inhibition At 0.03 μM (CDK2/Cyclin A; 0.03 µM) [%] | CDK4 % Inhibition at 0.03 μM ([1]; 0.03 µM) [%] | HCT-116 % Inhibition at 0.25 μM (HCT-116 cell line) [%] | HCT-116 % Inhibition at 0.25 μM (HCT-116 cell line; 0.25 µM) [%]
1 | Nc1nc(NC2CCN(C(=O)Nc3ccccc3F)CC2)sc1C(=O)c1c(F)cccc1F [Example O5] | 35 | 3 | – | – | 31 | –
2 | Nc1nc(NC2CCN(C(=O)Nc3ccccc3Cl)CC2)sc1C(=O)c1c(F)cccc1F [Example O6] | 36 | 10 | – | – | 12 | –
3 | COc1ccccc1NC(=O)N1CCC(Nc2nc(N)c(C(=O)c3c(F)cccc3F)s2)CC1 [Example O7] | 40 | 10 | – | – | 43 | –
4 | COc1ccc(NC(=O)N2CCC(Nc3nc(N)c(C(=O)c4c(F)cccc4F)s3)CC2)c(OC)c1 [Example O8] | 37 | 15 | – | – | 0 | –
5 | Cc1ccccc1NC(=O)N1CCC(Nc2nc(N)c(C(=O)c3c(F)cccc3F)s2)CC1 [Example O11] | 35 | 6 | – | – | 0 | –
6 | Nc1nc(NC2CCN(C(=O)Nc3cccc(Br)c3)CC2)sc1C(=O)c1c(F)cccc1F [Example O12] | 31 | 3 | – | – | 25 | –
7 | Nc1nc(NC2CCN(C(=O)Nc3cccc(F)c3)CC2)sc1C(=O)c1c(F)cccc1F [Example O13] | 37 | 8 | – | – | 22 | –
8 | COc1cccc(NC(=O)N2CCC(Nc3nc(N)c(C(=O)c4c(F)cccc4F)s3)CC2)c1 [Example O15] | 36 | 4 | – | – | 13 | –
9 | Nc1nc(NC2CCN(C(=O)Nc3ccc(F)cc3)CC2)sc1C(=O)c1c(F)cccc1F [Example O19] | 31 | 9 | – | – | 7 | –
10 | Nc1nc(NC2CCN(C(=O)Nc3ccc(Cl)cc3)CC2)sc1C(=O)c1c(F)cccc1F [Example O20] | 26 | 7 | – | – | 15 | –
11 | Cc1ccc(S(=O)(=O)NC(=O)N2CCC(Nc3nc(N)c(C(=O)c4c(F)cccc4F)s3)CC2)cc1 [Example O25] | 31 | 3 | – | – | 27 | –
12 | CC(NC(=O)N1CCC(Nc2nc(N)c(C(=O)c3c(F)cccc3F)s2)CC1)c1ccccc1 (stereo not drawn) [Example O28] | – | – | 27 | 12 | – | 43
13 | CC(C)NC(=O)N1CCC(Nc2nc(N)c(C(=O)c3c(F)cccc3F)s2)CC1 [Example O29] | 30 | 10 | – | – | 33 | –
14 | CCCNC(=O)N1CCC(Nc2nc(N)c(C(=O)c3c(F)cccc3F)s2)CC1 [Example O33] | 30 | −3 | – | – | 31 | –
15 | Nc1nc(NC2CCN(C(=O)NC3CCCCC3)CC2)sc1C(=O)c1c(F)cccc1F [Example O34] | 30 | 6 | – | – | 22 | –
16 | Nc1nc(NC2CCN(C(=O)Nc3cccc4ccccc34)CC2)sc1C(=O)c1c(F)cccc1F [Example O35] | 29 | 5 | – | – | 0 | –

Further lines, with some results ahead:

Row | CDK2 % Inhibition At 0.03 μM (CDK2/Cyclin A) [%] | CDK4 % Inhibition at 0.03 μM [1] [%] | CDK2 % Inhibition At 0.03 μM (CDK2/Cyclin A; 0.03 µM) [%] | CDK4 % Inhibition at 0.03 μM ([1]; 0.03 µM) [%] | SMILES | HCT-116 % Inhibition at 0.25 μM (HCT-116 cell line) [%] | HCT-116 % Inhibition at 0.25 μM (HCT-116 cell line; 0.25 µM) [%]
17 | 27 | 10 | – | – | Nc1nc(NC2CCN(C(=O)Nc3ccccc3Br)CC2)sc1C(=O)c1c(F)cccc1F [Example O4] | 4 | –
18 | 35 | 2 | – | – | COc1ccc(OC)c(NC(=O)N2CCC(Nc3nc(N)c(C(=O)c4c(F)cccc4F)s3)CC2)c1 [Example O9] | 13 | –
19 | 28 | 5 | – | – | Nc1nc(NC2CCN(C(=O)Nc3ccccc3C(F)(F)F)CC2)sc1C(=O)c1c(F)cccc1F [Example O10] | 0 | –
20 | 36 | 9 | – | – | Nc1nc(NC2CCN(C(=O)Nc3cccc(Cl)c3)CC2)sc1C(=O)c1c(F)cccc1F [Example O14] | 23 | –
21 | 34 | 5 | – | – | Nc1nc(NC2CCN(C(=O)Nc3cccc(C(F)(F)F)c3)CC2)sc1C(=O)c1c(F)cccc1F [Example O16] | 6 | –
22 | 32 | 6 | – | – | Cc1cccc(NC(=O)N2CCC(Nc3nc(N)c(C(=O)c4c(F)cccc4F)s3)CC2)c1 [Example O17] | 8 | –
23 | 27 | 9 | – | – | Nc1nc(NC2CCN(C(=O)Nc3ccc(Br)cc3)CC2)sc1C(=O)c1c(F)cccc1F [Example O18] | 20 | –
24 | – | – | 37 | 13 | COc1ccc(NC(=O)N2CCC(Nc3nc(N)c(C(=O)c4c(F)cccc4F)s3)CC2)cc1 [Example O21] | – | 21
25 | 34 | 13 | – | – | CCOC(=O)c1ccc(NC(=O)N2CCC(Nc3nc(N)c(C(=O)c4c(F)cccc4F)s3)CC2)cc1 [Example O22] | 25 | –
26 | 36 | 10 | – | – | Nc1nc(NC2CCN(C(=O)Nc3ccc(C(F)(F)F)cc3)CC2)sc1C(=O)c1c(F)cccc1F [Example O23] | 24 | –
27 | 34 | 21 | – | – | Cc1ccc(NC(=O)N2CCC(Nc3nc(N)c(C(=O)c4c(F)cccc4F)s3)CC2)cc1 [Example O24] | 6 | –
28 | 33 | 10 | – | – | Nc1nc(NC2CCN(C(=O)NC(=O)c3ccccc3)CC2)sc1C(=O)c1c(F)cccc1F [Example O26] | 12 | –
29 | 38 | 9 | – | – | CC(C)(C)NC(=O)N1CCC(Nc2nc(N)c(C(=O)c3c(F)cccc3F)s2)CC1 [Example O27] | 24 | –
30 | 27 | 16 | – | – | CCOC(=O)CNC(=O)N1CCC(Nc2nc(N)c(C(=O)c3c(F)cccc3F)s2)CC1 [Example O30] | 31 | –
31 | 33 | 6 | – | – | CCNC(=O)N1CCC(Nc2nc(N)c(C(=O)c3c(F)cccc3F)s2)CC1 [Example O31] | 37 | –
32 | 30 | 12 | – | – | Nc1nc(NC2CCN(C(=O)NCCCl)CC2)sc1C(=O)c1c(F)cccc1F [Example O32] | 99 | –
33 | 23 | 12 | – | – | Nc1nc(NC2CCN(C(=O)Nc3ccc([N+](=O)[O-])cc3)CC2)sc1C(=O)c1c(F)cccc1F [Example O36] | 28 | –
34 | 40 | 12 | – | – | Nc1nc(NC2CCN(C(=O)NCc3ccccc3)CC2)sc1C(=O)c1c(F)cccc1F [Example O37] | 34 | –
